# In US12285524B2, “Sustained-release pharmaceutical compositions comprising an antipsychotic drug and uses thereof” (priority 2018, dated 2025):
# Assay: in vivo
# Conditions: female, Sprague-Dawley, rat, sc, 10 mg/kg
# Method: The rats were housed in a holding room which operated on a 12-hr light/12-hr dark circadian cycle with free access to water and food.
# Plasma samples were obtained by centrifugation, kept frozen at −80° C. and analyzed using a noncompartmental analysis model in PKSolver (Comput Methods Programs Biomed. 2010; 99(3):306-314).
smiles,measurement,setting,value
"Cc1nc2n(c(=O)c1CCN1CCC(c3noc4cc(F)ccc34)CC1)CCCC2 [Risperidone, risperidone]",AUC(0-inf),,13300 ng·h/mL
same,AUC(0-t),,13200 ng·h/mL
same,Cmax,,4510 ng/mL
same,"drug released, indicated by AUC0-t",8 h,100%
